Test results published in patent publication US20200291086A1, “BIOREVERSABLE PROMOIETIES FOR NITROGEN-CONTAINING AND HYDROXYL-CONTAINING DRUGS” (priority 2013, published 2020).
Numbered stars: 1 amine (or outer) side, 2 acyl side, 3 side chain; on linkers, the order of the positions; unused ones are H or OH. Square brackets hold non-standard residues; d marks the D form. Peptide text beside a SMILES is read from it. * marks the point of attachment. X13 = CCCCCCCCCC(=O)Nc1ccc2c(c1)CN([*:1])[C@H](C(=O)[*:2])C2; Phenylacetic(2-CH2NH2) = O=C(Cc1ccccc1CN[*:1])[*:2]; 2(aminomethyl)benzoyl = O=C(c1ccccc1CN[*:1])[*:2]; X6 = CCCCCCCCCC(=O)NCCCNC(=O)c1ccc(C(=O)*)c(CN)c1; X2 = O=C([C@@H]1Cc2ccccc2N1[*:1])[*:2]; X9 = NCCS(=O)(=O)c1ccc(C(=O)*)c(CN)c1; Tiq1c(1S) = O=C(O)[C@H]1NCCc2ccccc21; X11 = NCCCNC(=O)c1ccc(C(=O)*)c(CN)c1; Tic = O=C(O)[C@@H]1Cc2ccccc2CN1; dTic = O=C(O)[C@H]1Cc2ccccc2CN1; X12 = Cc1cc(N)cc(C(=O)*)c1CN; X5 = Cc1cc(CN)cc(CN)c1C(=O)*; Decanoyl = CCCCCCCCCC(=O)*; X1 = O=C(O)Cc1ccccc1C(=O)*; X4 = NCc1ncccc1C(=O)*; X7 = NCc1cccnc1C(=O)*

assay: Determination of half life in PBS: cleavage of promoieties from capped model peptides; type: physicochemical; conditions: PBS (phosphate-buffered saline), pH 4; read-out: t 1/2 (h), cleavage of promoiety linked to N terminus of model peptide X-[…] (converted)
Procedure: Determination Of half Life in PBS
Polypeptides GIVEQAA-NH2 (SEQ ID NO: 57) and […] (SEQ ID NO: 58), two mimics of the N-terminus section of insulin A chain, were used as model peptides to determine the half lives of various promoieties linked to the N-terminus of the peptides through an amide bond. The model peptides were prepared with Fmoc chemistry, cleaved by TFA and purified by preparative RP-HPLC.
The promoiety capped model peptide was dissolved at 1 mg/mL concentration in PBS and the solution was incubated at 37° C. in a water bath. Samples were collected for analysis at different time points (e.g., 8 h, 16 h, 24 h, 48 h, 72 h, 96 h, 120 h). […] The promoiety cleavage was quenched by lowering pH to 2 by addition of 0.1% TFA solution. RP-HPLC was used to monitor the cleavage reactions and the cleavage rates were quantitatively studied by measuring the peak areas of the promoiety capped and released model peptides. Agilent 6110 Quadrupole LC-MS was employed to verify the change of mass in the course of reaction.
The RP-HPLC analysis was performed using a Shimadzu LC-2010A HT system and a 150 mm×4.6 mm Zorbax 300SB-C18 column. The flow rate was 1 ml/min. Solvent A contained 0.1% TFA/5% CH3CN in deionized water, and solvent B contained 0.1% TFA in 100% CH3CN. A linear gradient was employed (e.g., 10-70% B in 10 minutes).
The rate of cleavage was determined for the respective promoiety capped model peptides. The concentrations of the promoiety capped model peptides and the released model peptides were determined by their respective peak areas. The first order dissociation rate constant of a promoiety capped model peptide was determined by plotting the logarithm of [starting promoiety capped model peptide]/[remaining promoiety capped model peptide] at various time intervals. The half life for cleavage of a promoiety capped model peptide was calculated by using the equation and the slope derived from this plot.
The cleavage half lives of various promoieties linked to the model peptides were determined using the procedures described above.

Compound | half-life at 1 mg/mL [h]
CC[C@H](C)[C@H](NC(=O)CNC(=O)c1ccccc1CC(=O)O)C(=O)N[C@H](C(=O)N[C@@H](CCC(=O)O)C(=O)N[C@@H](CCC(N)=O)C(=O)N[C@@H](C)C(=O)N[C@@H](C)C(=O)N[C@@H](Cc1ccc(O)cc1)C(=O)O)C(C)C [drawing 171] (X1-GIVEQAAY-OH; C-terminus assumed) | 6.2

same assay, conditions: PBS, 37° C., 1 mg/mL, RP-HPLC

Compound | t 1/2 (h), cleavage of promoiety linked to N terminus of model peptide X-GIVEQAAY [h]
SEQ ID NO: 60 (GIVEQAAY; N-term may be promoiety modified) | 72.6

same assay, conditions: PBS, 37° C., 1 mg/mL, RP-HPLC; read-out: t 1/2 (h), cleavage of promoiety linked to N terminus of model peptide X-GIVEQAA (converted)

Compound | half-life at 1 mg/mL [h]
CCCCCCCCCC(=O)Nc1ccc2c(c1)CN(C(=O)[C@H](C)N)[C@H](C(=O)NCC(=O)N[C@H](C(=O)N[C@H](C(=O)N[C@@H](CCC(=O)O)C(=O)N[C@@H](CCC(N)=O)C(=O)N[C@@H](C)C(=O)N[C@@H](C)C(=O)O)C(C)C)[C@@H](C)CC)C2 (H-A[X13]GIVEQAA-OH) | 38.9
CC[C@H](C)[C@H](NC(=O)CNC(=O)c1c(C)cc(CN)cc1CN)C(=O)N[C@H](C(=O)N[C@@H](CCC(=O)O)C(=O)N[C@@H](CCC(N)=O)C(=O)N[C@@H](C)C(=O)N[C@@H](C)C(=O)O)C(C)C (X5-GIVEQAA-OH; N-terminus and C-terminus assumed) | 300
CC[C@H](C)[C@H](NC(=O)CNC(=O)c1ccc(S(=O)(=O)CCN)cc1CN)C(=O)N[C@H](C(=O)N[C@@H](CCC(=O)O)C(=O)N[C@@H](CCC(N)=O)C(=O)N[C@@H](C)C(=O)N[C@@H](C)C(=O)O)C(C)C (X9-GIVEQAA-OH) | 28.1
CC[C@H](C)[C@H](NC(=O)CNC(=O)c1cc(N)cc(C)c1CN)C(=O)N[C@H](C(=O)N[C@@H](CCC(=O)O)C(=O)N[C@@H](CCC(N)=O)C(=O)N[C@@H](C)C(=O)N[C@@H](C)C(=O)O)C(C)C (X12-GIVEQAA-OH; N-terminus and C-terminus assumed) | 85

same assay, conditions: PBS, 37° C., 1 mg/mL, RP-HPLC; read-out: t 1/2 (h), cleavage of promoiety linked to N terminus of model peptide X-[…] (converted)

Compound | half-life at 1 mg/mL [h]
N[C@@H](CCCCNC(=O)OCC1c2ccccc2-c2ccccc21)c1nncn1[C@@H](CO)C(=O)O | 79.7
N[C@@H](CO)c1nncn1[C@@H](CCCCNC(=O)OCC1c2ccccc2-c2ccccc21)C(=O)O | 193
CCCCCCCCCC(=O)NCCCC[C@H](N)C(=O)N1CCc2ccccc2[C@H]1C(=O)NCC(=O)N[C@H](C(=O)N[C@H](C(=O)N[C@@H](CCC(=O)O)C(=O)N[C@@H](CCC(N)=O)C(=O)N[C@@H](C)C(=O)N[C@@H](C)C(=O)N[C@@H](Cc1ccc(O)cc1)C(=O)O)C(C)C)[C@@H](C)CC (H-K(Decanoyl)[Tiq1c(1S)]GIVEQAAY-OH) | 262
CC[C@H](C)[C@H](NC(=O)CNC(=O)c1cccnc1CN)C(=O)N[C@H](C(=O)N[C@@H](CCC(=O)O)C(=O)N[C@@H](CCC(N)=O)C(=O)N[C@@H](C)C(=O)N[C@@H](C)C(=O)N[C@@H](Cc1ccc(O)cc1)C(=O)O)C(C)C (X4-GIVEQAAY-OH; C-terminus assumed) | 458
CCCCCCCCCC(=O)NCCCNC(=O)c1ccc(C(=O)NCC(=O)N[C@H](C(=O)N[C@H](C(=O)N[C@@H](CCC(=O)O)C(=O)N[C@@H](CCC(N)=O)C(=O)N[C@@H](C)C(=O)N[C@@H](C)C(=O)N[C@@H](Cc2ccc(O)cc2)C(=O)O)C(C)C)[C@@H](C)CC)c(CN)c1 (X6-GIVEQAAY-OH) | 181
CC[C@H](C)[C@H](NC(=O)CNC(=O)c1ncccc1CN)C(=O)N[C@H](C(=O)N[C@@H](CCC(=O)O)C(=O)N[C@@H](CCC(N)=O)C(=O)N[C@@H](C)C(=O)N[C@@H](C)C(=O)N[C@@H](Cc1ccc(O)cc1)C(=O)O)C(C)C (X7-GIVEQAAY-OH; C-terminus assumed) | 597
CC[C@H](C)[C@H](NC(=O)CNC(=O)c1ccc(C(=O)NCCCN)cc1CN)C(=O)N[C@H](C(=O)N[C@@H](CCC(=O)O)C(=O)N[C@@H](CCC(N)=O)C(=O)N[C@@H](C)C(=O)N[C@@H](C)C(=O)N[C@@H](Cc1ccc(O)cc1)C(=O)O)C(C)C (X11-GIVEQAAY-OH) | 112
CC[C@H](C)[C@H](NC(=O)CNC(=O)c1ccccc1CN)C(=O)N[C@H](C(=O)N[C@@H](CCC(=O)O)C(=O)N[C@@H](CCC(N)=O)C(=O)N[C@@H](C)C(=O)N[C@@H](C)C(=O)N[C@@H](Cc1ccc(O)cc1)C(=O)O)C(C)C ({2(aminomethyl)benzoyl}-GIVEQAAY-OH; C-terminus assumed) | 1030
CC[C@H](C)[C@H](NC(=O)CNC(=O)Cc1ccccc1CN)C(=O)N[C@H](C(=O)N[C@@H](CCC(=O)O)C(=O)N[C@@H](CCC(N)=O)C(=O)N[C@@H](C)C(=O)N[C@@H](C)C(=O)N[C@@H](Cc1ccc(O)cc1)C(=O)O)C(C)C ({Phenylacetic(2-CH2NH2)}-GIVEQAAY-OH; C-terminus assumed) | 482
CC[C@H](C)[C@H](NC(=O)CNC(=O)[C@@H]1Cc2ccccc2N1C(=O)[C@H](C)N)C(=O)N[C@H](C(=O)N[C@@H](CCC(=O)O)C(=O)N[C@@H](CCC(N)=O)C(=O)N[C@@H](C)C(=O)N[C@@H](C)C(=O)N[C@@H](Cc1ccc(O)cc1)C(=O)O)C(C)C [NH2-Ala-Indo2CA] (H-A[X2]GIVEQAAY-OH; C-terminus assumed) | 3.4
CC[C@H](C)[C@H](NC(=O)CNC(=O)[C@@H]1Cc2ccccc2CN1C(=O)[C@H](C)N)C(=O)N[C@H](C(=O)N[C@@H](CCC(=O)O)C(=O)N[C@@H](CCC(N)=O)C(=O)N[C@@H](C)C(=O)N[C@@H](C)C(=O)N[C@@H](Cc1ccc(O)cc1)C(=O)O)C(C)C [NH2-Ala-Tic] (H-A[Tic]GIVEQAAY-OH; C-terminus assumed) | 58.9
CCCCCCCCCC(=O)NCCCC[C@H](N)C(=O)N1c2ccccc2C[C@H]1C(=O)NCC(=O)N[C@H](C(=O)N[C@H](C(=O)N[C@@H](CCC(=O)O)C(=O)N[C@@H](CCC(N)=O)C(=O)N[C@@H](C)C(=O)N[C@@H](C)C(=O)N[C@@H](Cc1ccc(O)cc1)C(=O)O)C(C)C)[C@@H](C)CC [NH2-K(C10)-Indo2CA] (H-K(Decanoyl)[X2]GIVEQAAY-OH; C-terminus assumed) | 6
CCCCCCCCCC(=O)NCCCC[C@H](N)C(=O)N1Cc2ccccc2C[C@H]1C(=O)NCC(=O)N[C@H](C(=O)N[C@H](C(=O)N[C@@H](CCC(=O)O)C(=O)N[C@@H](CCC(N)=O)C(=O)N[C@@H](C)C(=O)N[C@@H](C)C(=O)N[C@@H](Cc1ccc(O)cc1)C(=O)O)C(C)C)[C@@H](C)CC [NH2-K(C10)-Tic] (H-K(Decanoyl)[Tic]GIVEQAAY-OH; C-terminus assumed) | 46.9
CC[C@H](C)[C@H](NC(=O)CNC(=O)[C@@H]1Cc2ccccc2N1C(=O)[C@@H](N)Cc1ccccc1)C(=O)N[C@H](C(=O)N[C@@H](CCC(=O)O)C(=O)N[C@@H](CCC(N)=O)C(=O)N[C@@H](C)C(=O)N[C@@H](C)C(=O)N[C@@H](Cc1ccc(O)cc1)C(=O)O)C(C)C [NH2-Phe-Indo2CA] (H-F[X2]GIVEQAAY-OH; C-terminus assumed) | 9.7
CC[C@H](C)[C@H](NC(=O)CNC(=O)[C@@H]1Cc2ccccc2N1C(=O)[C@@H](N)C(C)C)C(=O)N[C@H](C(=O)N[C@@H](CCC(=O)O)C(=O)N[C@@H](CCC(N)=O)C(=O)N[C@@H](C)C(=O)N[C@@H](C)C(=O)N[C@@H](Cc1ccc(O)cc1)C(=O)O)C(C)C [NH2-Val-Indo2CA] (H-V[X2]GIVEQAAY-OH; C-terminus assumed) | 13
CCCCCCCCCC(=O)NCCCC[C@@H](N)C(=O)N1Cc2ccccc2C[C@@H]1C(=O)NCC(=O)N[C@H](C(=O)N[C@H](C(=O)N[C@@H](CCC(=O)O)C(=O)N[C@@H](CCC(N)=O)C(=O)N[C@@H](C)C(=O)N[C@@H](C)C(=O)N[C@@H](Cc1ccc(O)cc1)C(=O)O)C(C)C)[C@@H](C)CC [NH2-dK(C10)-dTic] (H-[dK](Decanoyl)[dTic]GIVEQAAY-OH; C-terminus assumed) | 50.6
CC[C@H](C)[C@H](NC(=O)CNC(=O)c1ccccc1CC(=O)O)C(=O)N[C@H](C(=O)N[C@@H](CCC(=O)O)C(=O)N[C@@H](CCC(N)=O)C(=O)N[C@@H](C)C(=O)N[C@@H](C)C(=O)N[C@@H](Cc1ccc(O)cc1)C(=O)O)C(C)C [drawing 173] (X1-GIVEQAAY-OH; C-terminus assumed) | 183

same assay, conditions: compound drawn; stated after the PBS tables; read-out: Half life for cleavage (converted)

Compound | half-life at 1 mg/mL [h]
Cc1cc(C(=O)O)cc(CN)c1C(=O)NCCc1ccc(N)cc1 | 779
